Assay results: patent publication EP0313908A2, “Halogen-substituted phenoxyphenylpropionic acid derivatives” (BAYER AG, priority 1987, dated 1989)

Legend:
[1] = test system: Unkräuter, wie z. B. Amaranthus, Chenopodium, Ipomoea, Portulak und Solanum; assay: Post-emergence test (herbicidal action on weeds); format: in vivo; settings: post-emergence spray on test plants 5 - 15 cm high, 2000 l Wasser/ha; damage rated after three weeks against untreated control; stated in comparison with Vergleichssubstanz (A)
Text: (§1) Post-emergence-Test Lösungsmittel: 5 Gewichtsteile Aceton Emulgator: 1 Gewichtsteil Alkylarylpolyglykolether
(§2) Zur Herstellung einer zweckmäßigen Wirkstoffzubereitung vermischt man 1 Gewichtsteil Wirkstoff mit der angegebenen Menge Lösungsmittel, gibt die angegebene Menge Emulgator zu und verdünnt das Konzentrat mit Wasser auf die gewünschte Konzentration.
(§3) Mit der Wirkstoffzubereitung spritzt man Testpflanzen, welch eine Höhe von 5 - 15 cm haben so, daß die jeweils gewünschten Wirkstoffmengen pro Flächeneinheit ausgebracht werden. Die Konzentration der Spritzbrühe wird so gewählt, daß in 2000 l Wasser/ha die jeweils gewünschten Wirkstoffmengen ausgebracht werden. Nach drei Wochen wird der Schädigungsgrad der Pflanzen bonitiert in % Schädigung im Vergleich zur Entwicklung der unbehandelten Kontrolle. Es bedeuten: 0 % = keine Wirkung (wie unbehandelte Kontrolle) 100 % = totale Vernichtung

Mais = settings: in vivo
Text: as §1, §2, §3

Baumwollpflanzen = assay: Defoliation and desiccation of the leaves of cotton; format: in vivo, Baumwolle; settings: cotton plants in the greenhouse, 5th leaf fully unfolded, sprayed dripping wet; rated after 1 week against control plants (scale 0, +, ++, +++)
Text: Entlaubung und Austrocknung der Blätter bei Baumwolle
Lösungsmittel: 30 Gewichtsteile Dimethylformamid Emulgator: 1 Gewichtsteil Polyoxyethylen-Sorbitan-Monolaurat
Zur Herstellung einer zweckmäßigen Wirkstoffzubereitung vermischt man 1 Gewichtsteil Wirkstoff mit den angegebenen Mengen Lösungsmittel und Emulgator und füllt mit Wasser auf die gewünschte Konzentration auf.
Baumwollpflanzen werden im Gewächshaus bis zur vollen Entfaltung des 5. Folgeblattes angezogen. In diesem Stadium werden die Pflanzen tropfnaß mit den Wirkstoffzubereitungen besprüht. Nach 1 Woche werden der Blattfall und das Austrocknen der Blätter im Vergleich zu den Kontrollpflanzen bonitiert. Es bedeuten: 0 kein Austrocknen der Blätter, kein Blattfall + leichtes Austrocknen der Blätter, geringer Blattfall ++ starkes Austrocknen der Blätter, starker Blattfall +++ sehr starkes Austrocknen der Blätter, sehr starker Blattfall

Selektivität in Mais (Mais) | SMILES | Wirkung gegen Unkräuter [1] | Austrocknen der Blätter (Baumwollpflanzen) | Blattfall (Baumwollpflanzen)
guter Selektivität | COC(=O)CCc1cc(Oc2c(Cl)cc(C(F)(F)F)cc2Cl)ccc1Cl [Beispiel 3, 3-[3-(2,6-dichlor-4-trifluormethyl-phenoxy)-6-chlor-phenyl]-propionsäuremethylester] | erheblich stärkere Wirkung | sehr starkes | sehr starken
guter Selektivität | COC(=O)C(Cl)Cc1cc(Oc2c(Cl)cc(C(F)(F)F)cc2Cl)ccc1Cl (stereo not drawn) [Beispiel 1, 2-Chlor-3-[3-(2,6-dichlor-4-trifluormethyl-phenoxy)-6-chlor-phenyl]-propionsäure-methylester] | erheblich stärkere Wirkung | sehr starkes | sehr starken
guter Selektivität | COC(=O)CC(Br)c1cc(Oc2c(Cl)cc(C(F)(F)F)cc2Cl)ccc1Cl (stereo not drawn) [Beispiel 4, 3-Brom-3-[3-(2,6-dichlor-4-trifluormethyl-phenoxy)-6-chlorphenyl]-propionsäuremethylester] | erheblich stärkere Wirkung |  | 
guter Selektivität | COC(=O)C(Br)Cc1cc(Oc2c(Cl)cc(C(F)(F)F)cc2Cl)c(Cl)cc1Cl (stereo not drawn) [Beispiel 2, 2-Brom-3-[3-(2,6-dichlor-4-trifluormethyl-phenoxy)-4,6-dichlorphenyl]-propionsäuremethylester] | erheblich stärkere Wirkung |  | 
